Where two headings read alike, the source gives them in different places.

The subject of series [1] is bovine capillary endothelial (BCE) cells. Nature of the series: Endothelial cell proliferation assay (bFGF-stimulated). The format is cell-based. On the procedure:
Male Sprague-Dawley rats weighing 200 g were used as an experimental animal. Arsenolite (solid As4O6) was dissolved in water until it becomes a 1 mM of stock solution, and kept at the room temperature. Bovine capillary endothelial (BCE) cells were provided by Dr. Tae-Hee Lee (Lee, T. H., Rhim, T., and Kim, S. S. (1998). Prothromb inkringle-2 domain has a growth inhibitory activity against basic fibroblast growth factor-stimulated capillary endothelial cells. J. Biol. Chem 273, 28805-28812). BCE cells were preserved in Dulbecco's modified Eagle's medium (DMEM) supplemented with 10% heat-inactivated bovine calf serum (BCS; Hyclone Laboratories, Logan, Utah) L-glutamine (2 mM), penicillin (110 units/ml), streptomycin (100 μg/ml) and 1.5 ng/ml recombinant human basic fibroblast growth factor (bFGF; R&D Systems, Minneapolis, Minn.). Then, the cells were incubated at 37° C. under 10% CO2 condition. The cells between 10-15 passages were employed in this experiment.
Endothelial proliferation assay was performed as described by Cao et al. (Cao, Y., A., An, S. S. A., Ji, R. W., Davodson, D., Cao, Y., and Llinas, M. (1997) Kringle 5 of plasminogen is a novel inhibitor for endothelial cell growth. J. Biol. Chem. 271, 22924-22928). […] After 72 hours of incubation, the cells were trypsinized and counted using a hemocytometer. […]

Series [2] shares this test system. Nature of the series: Chemotaxis assay in modified Boyden chambers (bFGF as chemoattractant). The format is cell-based. The procedure: Chemotaxis assays were performed using modified Boyden chambers, which is equipped with polycarbonate nucleopore membrane (Boyden Chamber, Corning, Coring, N.Y.) described in Journal (Veronique Rigot, Maxime Lehmann, Frederic andre, Noucha Daemi, Jacques Marvaldi and Jose Luis: Integrin ligation and PKC activation are required for migration of colon carcinoma cells. Journal of cell science 111, 3119-3129 (1998)). Pre-coated filters (6.5 mm in diameter, 8 μm pore-size, Matrigel 100 μg/cm^2) were re-hydrated with 250 μl of medium, and 1×10^5 cells in 200 μl medium with or without arsenolite (at concentrations of 10 nM, 20 nM, 50 nM, 100 nM and 200 nM) in triple respectively were seeded into the upper part of each chamber, whereas the lower compartment was filled with 200 μl of serum free DMEM supplemented with 0.1% BSA and with (positive control) or without (negative control) 10 ng/ml bFGF as a chemoattractant. After the cells were incubated at 37° C. for 72 hours, non-migrated cells on the upper surface of the filter were wiped with a cotton swab, and migrated cells on the lower surface of the filter were fixed and stained with 0.125% Cumassie Blue in a mixture of methanol: acetic acid: water at the ratio of 45:10:45 by volume. Chemotaxis was determined by counting cells in five microscopic fields per well, and the extent of migration is expressed as an average number of cells per each microscopic field.

The next series relates to BCE cells. Nature of the series: Tube formation assay in 3-D fibrin gel culture. The format is cell-based, bovine. The settings on record: 100 nM, bFGF 10 ng/ml, 48 or 96 hours. The procedure:
To investigate the effect of arsenolite on the maturation of angiogenesis, particularly, tubular structure formation of capillary endothelial cells, BCE cells were cultured using three dimensional cultures on the fibrin gel.
Fibrin gels were prepared by following a reported procedure (Bastaki M, Nelli E E, Dell'Era P, Rusnati M, Molinari-Tosatti M P, Parolini S, Auerbach R, Ruco L P, Possati L, Presta M, Basic fibrolast growth factor-induced angiogenic phenotype in mouse endothelium. A study of aortic and microvascular endothelial cell lines. Arterioscler Thromb Vasc Bio March 1997; 17(3): 454-64). Briefly, 2.5 mg/ml of fibrinogen (Calbiochem, San Diego, Calif.) was dissolved in DMEM and cultured BCE cells were added to a final concentration of 10^5 cells/ml, and clotting was then initiated by addition of thrombin (0.5 unit/ml). The mixture was immediately transferred into 24-well plates and allowed to form gel for 5 minutes at 37° C. Following get formation, 0.5 ml of medium with or without bFGF (10 ng/ml) and arsenolite (100 nM) per well were added. After 48 or 96 hours, tube formation was examined under inverted microscopy.

In series [3] the test system is bFGF-induced rat corneal neovascularization. Nature of the series: Corneal micropocket angiogenesis assay. The settings on record: oral; for bFGF-induced corneal neovascularization: 50 mg/kg/day for 7 days. In kind it is in vivo, Sprague Dawley rat. On the procedure: To further investigate the antiangiogenic activity of arsenolite in vivo, the inhibitory effect of systematically administered arsenolite on bFGF-induced neovascularization was studied. The corneal micropocket assay was performed by slight modification of a reported procedure (Polverim P J, Bouck N P, Rastinejad F. Assay and purification of naturally occurring inhibitor of angiogenesis, Methods Enzymol. 1991; 198: 440-450). That is, rats were anesthetized with ketamine. A corneal pocket was made by inserting a cataract knife, with the pocket's base 1-1.5 mm from the limbus. Pellets were made by mixing 30 μl of saline containing 2 μg of recombinant bFGF (R&D Systems, Minneapolis, Minn. U.S.A.) with 300 μg of sucralfate (Sigma, St. Louis, Mo., U.S.A.); this suspension was added to 30 μl of 12% (wt/vol) poly (2-hydroxyethyl methacylate) (Sigma, St. Louis, Mo., U.S.A.) in ethanol. Aliquots of this mixture were then pined onto Teflon pegs and allowed to dry producing approximately 17 pellets so that each pellet contains approximately 100 ng of bFGF. A pellet was implanted into corneal micropockets of each eye of an anesthetized male Sprague Dawley rat, followed by a single topical application of erythromycin ointment on the surface of the cornea. The animals were fed daily from the day of implantation by gastric lavage with 50 mg/kg of arsenolite powder for the treatment group, and the same foods and water without arsenolite for the control group. The corneal neovascularization in both eyes of all animals were examined daily with a slit lamp and the angiogenic responses were evaluated on day 7. The area of conical neovascularization was determined by measuring with a reticule the vessel length (L) from the limbus and the number of clock hours (C) of limbus involved as previously reported (D'Amato R I, Loughnan M S, Flynn E, Foulkman J, Thalidomide is an inhibitor of angiogenesis. Proc Natl Acad Sci USA Apr. 26, 1994; 91(9):4082-5). A formula was used to determine the area of a circular band segment: C/12×3.1416[r^2−(rL)^2], where r=5 mm, the measured radius of rat cornea.

Series [4] can be described thus: Tolerability of treated rats in the corneal micropocket study. In kind it is in vivo, Sprague Dawley rat. To be noted: oral, 50 mg/kg/day for 7 days. The procedure:
To further investigate the antiangiogenic activity of arsenolite in vivo, the inhibitory effect of systematically administered arsenolite on bFGF-induced neovascularization was studied. The corneal micropocket assay was performed by slight modification of a reported procedure (Polverim P J, Bouck N P, Rastinejad F. Assay and purification of naturally occurring inhibitor of angiogenesis, Methods Enzymol. 1991; 198: 440-450). That is, rats were anesthetized with ketamine. A corneal pocket was made by inserting a cataract knife, with the pocket's base 1-1.5 mm from the limbus. […] The corneal neovascularization in both eyes of all animals were examined daily with a slit lamp and the angiogenic responses were evaluated on day 7. The area of conical neovascularization was determined by measuring with a reticule the vessel length (L) from the limbus and the number of clock hours (C) of limbus involved as previously reported (D'Amato R I, Loughnan M S, Flynn E, Foulkman J, Thalidomide is an inhibitor of angiogenesis. Proc Natl Acad Sci USA Apr. 26, 1994; 91(9):4082-5). A formula was used to determine the area of a circular band segment: C/12×3.1416[r^2−(rL)^2], where r=5 mm, the measured radius of rat cornea. […]

The nature of series [5]: 28-day oral administration toxicity in rat. In kind it is in vivo, Sprague Dawley rat.
For series [6] the following is noted: oral administration; cited from earlier work.

As for `O1[As]2O[As]3O[As]1O[As](O2)O3` [arsenolite, Tetraarsenic oxide], the IC50 in series [1] (3 ng/ml bFGF, 72 hours incubation, cell count, read-out: inhibition of BCE cell proliferation, IC50) stood at 99 nM; in series [2] (10 ng/ml bFGF, 72 hours, read-out: inhibition of bFGF-induced invasiveness (chemotaxis), IC50) it was 48 nM. Also, the “cell morphological changes associated with apoptotic endothelial cells (detachment, rounding, fragmentation)” value in series [1] (after a 3-day incubation, 10 to 200 nM) is given as “No distinct cell morphological changes”; in series [2] (chemotaxis assay, 10 to 200 nM), “none of distinct cell morphological changes”. Also, the “inhibition of bFGF-induced invasiveness (chemotaxis)” value in series [2] (at 100 nM, 10 ng/ml bFGF, 72 hours) amounted to 83.4%. The “generation of tubes by BCE cells” value with BCE cells was “reduced”. In addition, the bFGF-induced corneal neovascularization entry in series [3] is on record as “significantly inhibited”; in series [3] (listed as angiogenesis inhibitor of the present invention), “noticeably suppressed”. In series [3] (50 mg/kg/day, day 7), the “density of corneal vessels compared with control animals” value is given as “markedly reduced”. In addition, the “inhibition of clock hours of corneal circumferential neovascularization” value in series [3] (50 mg/kg/day, day 7) is given as “more than 60%”. Moreover, the “inhibition of vessel length of corneal neovascularization” value in series [3] (50 mg/kg/day, day 7) is listed as “more than 60%”. Further, the “suppression of area of neovascularization” value in series [3] (50 mg/kg/day, day 7, area calculated from length and clock hours) is “approximately 90%”. The “weight loss or unusual behavior over the course of the treatment” value in series [4] is “did not experience weight loss or unusual behavior”. Further, the side effect result in series [5] (oral 1 mg/kg for 28 days) and in series [5] (oral 10 mg/kg for 28 days) was “none of side effect was observed” throughout. Besides, the “histological alterations in kidney” value in series [5] (oral 100 mg/kg for 28 days) is recorded as “only minor histological alterations was observed in kidney”. In addition, the “side effect on gastrointestinal and liver” value in series [5] (oral 100 mg/kg for 28 days) was “no side affect on gastrointestinal and liver”.
As to arsenic trioxide, in series [6], the “side effect on gastrointestinal and liver” value was “caused serious side effect on gastrointestinal and liver”.

These data come from patent US6703049B2, “Angiogenesis inhibitor” (priority 2000, dated 2004).
